Type in all cases: biochemical
For one test, the target named is T1, FLT (ITD) (Homo sapiens, UniProt P36888).
T1 sequence (P36888 1-993): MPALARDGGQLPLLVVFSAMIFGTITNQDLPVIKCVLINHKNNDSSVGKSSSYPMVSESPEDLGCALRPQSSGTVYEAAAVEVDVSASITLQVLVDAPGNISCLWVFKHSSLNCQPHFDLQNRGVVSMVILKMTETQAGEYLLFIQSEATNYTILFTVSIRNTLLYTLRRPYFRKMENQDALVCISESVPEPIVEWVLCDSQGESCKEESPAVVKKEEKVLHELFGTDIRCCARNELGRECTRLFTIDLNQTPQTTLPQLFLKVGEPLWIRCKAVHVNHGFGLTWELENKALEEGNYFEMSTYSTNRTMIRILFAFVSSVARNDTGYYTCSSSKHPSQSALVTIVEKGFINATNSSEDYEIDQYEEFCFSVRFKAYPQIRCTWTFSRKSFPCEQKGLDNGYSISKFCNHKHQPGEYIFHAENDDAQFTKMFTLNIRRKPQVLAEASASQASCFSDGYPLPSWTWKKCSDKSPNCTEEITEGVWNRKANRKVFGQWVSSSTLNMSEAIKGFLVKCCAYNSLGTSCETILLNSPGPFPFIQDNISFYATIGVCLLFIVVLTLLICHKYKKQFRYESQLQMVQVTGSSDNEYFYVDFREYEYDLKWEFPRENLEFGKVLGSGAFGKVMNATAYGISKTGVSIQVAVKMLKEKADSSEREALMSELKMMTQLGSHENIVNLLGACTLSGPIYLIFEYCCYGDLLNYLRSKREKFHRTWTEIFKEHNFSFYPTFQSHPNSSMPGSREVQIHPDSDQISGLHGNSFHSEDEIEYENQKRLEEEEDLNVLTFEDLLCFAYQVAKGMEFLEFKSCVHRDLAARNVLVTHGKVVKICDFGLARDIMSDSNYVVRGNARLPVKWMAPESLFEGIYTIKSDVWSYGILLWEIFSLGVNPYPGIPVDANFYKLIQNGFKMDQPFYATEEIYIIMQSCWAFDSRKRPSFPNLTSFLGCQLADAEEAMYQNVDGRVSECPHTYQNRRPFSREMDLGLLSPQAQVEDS
The experiment in a line: FLT (ITD) enzyme activity (IC50). The source says: (§1) Experimental Example 1. Measurement of FLT3 and FLT Enzyme Activity
(§2) Changes in FLT3 and FLT enzyme activities by treatment with the quinazoline derivatives of the following Table 1 according to the present invention were confirmed by IC50.

A further test concerns the target BTK (Homo sapiens, UniProt Q06187). The experiment in a line: Kinase panel screening. To be noted: single dose of 10 μM, read-out: % inhibition rate.
The target in a further test is FMS (Homo sapiens, UniProt P07333). The experiment in a line: Kinase panel screening. To be noted: single dose of 10 μM, read-out: % inhibition rate.
A further test addresses FGFR3 (Homo sapiens, UniProt P22607). The experiment in a line: Kinase panel screening. To be noted: single dose of 10 μM, read-out: % inhibition rate.
The next test concerns the target CAMKK1 (Homo sapiens, UniProt Q8N5S9). The experiment in a line: Kinase panel screening. To be noted: single dose of 10 μM, read-out: % inhibition rate.
A further test has as its target RIPK3 (Homo sapiens, UniProt Q9Y572). The experiment in a line: Kinase panel screening. To be noted: single dose of 10 μM, read-out: % inhibition rate. How it is done:
Next, kinase panel screening for Compound 7d was investigated for 36 different kinases at a single dose of 10 μM (FIG. 1 and Table 3).

For a further test, the target named is AXL (R499C) (Homo sapiens, UniProt P30530, R499C). The experiment in a line: Kinase panel screening. The following applies: single dose of 10 μM, read-out: % inhibition rate.
The next test deals with T2, FLT3 (Homo sapiens, UniProt P36888).
T2 sequence (P36888 27-993): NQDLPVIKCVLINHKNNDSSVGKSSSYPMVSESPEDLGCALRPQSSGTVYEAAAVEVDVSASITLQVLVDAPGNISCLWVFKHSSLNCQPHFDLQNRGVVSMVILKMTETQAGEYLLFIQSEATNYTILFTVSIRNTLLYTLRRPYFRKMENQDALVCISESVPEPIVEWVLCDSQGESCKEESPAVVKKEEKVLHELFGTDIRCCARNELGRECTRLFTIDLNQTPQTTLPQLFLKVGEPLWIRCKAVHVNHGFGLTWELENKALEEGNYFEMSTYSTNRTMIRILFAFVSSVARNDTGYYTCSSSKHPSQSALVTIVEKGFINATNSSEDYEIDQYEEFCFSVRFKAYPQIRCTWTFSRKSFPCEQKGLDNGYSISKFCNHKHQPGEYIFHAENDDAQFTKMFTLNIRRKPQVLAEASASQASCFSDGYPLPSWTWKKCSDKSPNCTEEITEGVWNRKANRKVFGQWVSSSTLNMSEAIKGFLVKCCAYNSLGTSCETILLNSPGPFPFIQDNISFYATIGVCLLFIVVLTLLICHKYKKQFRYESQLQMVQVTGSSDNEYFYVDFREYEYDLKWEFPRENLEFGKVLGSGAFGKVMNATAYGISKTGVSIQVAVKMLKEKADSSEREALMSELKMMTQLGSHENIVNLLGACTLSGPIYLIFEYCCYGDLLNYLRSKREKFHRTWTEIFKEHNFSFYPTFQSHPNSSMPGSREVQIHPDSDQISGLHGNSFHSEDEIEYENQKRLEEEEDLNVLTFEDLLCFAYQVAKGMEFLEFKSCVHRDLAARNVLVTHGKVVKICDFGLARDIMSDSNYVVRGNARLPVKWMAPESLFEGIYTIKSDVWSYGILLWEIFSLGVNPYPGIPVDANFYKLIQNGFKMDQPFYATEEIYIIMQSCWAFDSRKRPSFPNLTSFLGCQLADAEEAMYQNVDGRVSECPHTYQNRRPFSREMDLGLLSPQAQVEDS
The experiment in a line: FLT3 enzyme activity (IC50).
Excerpt: as §1, §2

The target of the next test is BRAF (V599E) (Homo sapiens, UniProt P15056, V600E). The experiment in a line: Kinase panel screening. To be noted: single dose of 10 μM, read-out: % inhibition rate.
Another test addresses Aurora A (Homo sapiens, UniProt O14965). The experiment in a line: Kinase panel screening. The following applies: single dose of 10 μM, read-out: % inhibition rate.
For the next test, the target named is MEK1 (Homo sapiens, UniProt Q02750). The experiment in a line: Kinase panel screening. The following applies: single dose of 10 μM, read-out: % inhibition rate.
The target of the next test is c-MET (Homo sapiens, UniProt P08581). The experiment in a line: Kinase panel screening. To be noted: single dose of 10 μM, read-out: % inhibition rate.
For the next test, the target named is ABL1 (Homo sapiens, UniProt P00519). The experiment in a line: Kinase panel screening. To be noted: single dose of 10 μM, read-out: % inhibition rate.
The target of a further test is ROS/ROS1 (Homo sapiens, UniProt P08922). The experiment in a line: Kinase panel screening. To be noted: single dose of 10 μM, read-out: % inhibition rate.
In another test the target is ALK (Homo sapiens, UniProt Q9UM73). The experiment in a line: Kinase panel screening. The following applies: single dose of 10 μM, read-out: % inhibition rate.

Like-named read-outs stand apart in the source and are kept apart here. Some results are limits rather than exact numbers.

CAMKK1, sequence (Q8N5S9 whole entry, species assumed): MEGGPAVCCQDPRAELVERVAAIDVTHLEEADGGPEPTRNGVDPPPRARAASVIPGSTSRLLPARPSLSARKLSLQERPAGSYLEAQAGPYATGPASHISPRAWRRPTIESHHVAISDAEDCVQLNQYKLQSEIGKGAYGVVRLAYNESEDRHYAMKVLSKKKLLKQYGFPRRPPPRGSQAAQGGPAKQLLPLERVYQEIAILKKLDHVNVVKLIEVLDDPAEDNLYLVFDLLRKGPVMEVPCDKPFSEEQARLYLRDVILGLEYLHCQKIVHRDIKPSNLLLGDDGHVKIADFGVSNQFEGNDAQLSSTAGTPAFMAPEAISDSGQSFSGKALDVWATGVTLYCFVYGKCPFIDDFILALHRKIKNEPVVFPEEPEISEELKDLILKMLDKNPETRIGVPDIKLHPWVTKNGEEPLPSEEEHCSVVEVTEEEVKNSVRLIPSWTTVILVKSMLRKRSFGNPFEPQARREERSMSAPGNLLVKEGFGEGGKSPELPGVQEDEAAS
ROS/ROS1, sequence (P08922 28-2347): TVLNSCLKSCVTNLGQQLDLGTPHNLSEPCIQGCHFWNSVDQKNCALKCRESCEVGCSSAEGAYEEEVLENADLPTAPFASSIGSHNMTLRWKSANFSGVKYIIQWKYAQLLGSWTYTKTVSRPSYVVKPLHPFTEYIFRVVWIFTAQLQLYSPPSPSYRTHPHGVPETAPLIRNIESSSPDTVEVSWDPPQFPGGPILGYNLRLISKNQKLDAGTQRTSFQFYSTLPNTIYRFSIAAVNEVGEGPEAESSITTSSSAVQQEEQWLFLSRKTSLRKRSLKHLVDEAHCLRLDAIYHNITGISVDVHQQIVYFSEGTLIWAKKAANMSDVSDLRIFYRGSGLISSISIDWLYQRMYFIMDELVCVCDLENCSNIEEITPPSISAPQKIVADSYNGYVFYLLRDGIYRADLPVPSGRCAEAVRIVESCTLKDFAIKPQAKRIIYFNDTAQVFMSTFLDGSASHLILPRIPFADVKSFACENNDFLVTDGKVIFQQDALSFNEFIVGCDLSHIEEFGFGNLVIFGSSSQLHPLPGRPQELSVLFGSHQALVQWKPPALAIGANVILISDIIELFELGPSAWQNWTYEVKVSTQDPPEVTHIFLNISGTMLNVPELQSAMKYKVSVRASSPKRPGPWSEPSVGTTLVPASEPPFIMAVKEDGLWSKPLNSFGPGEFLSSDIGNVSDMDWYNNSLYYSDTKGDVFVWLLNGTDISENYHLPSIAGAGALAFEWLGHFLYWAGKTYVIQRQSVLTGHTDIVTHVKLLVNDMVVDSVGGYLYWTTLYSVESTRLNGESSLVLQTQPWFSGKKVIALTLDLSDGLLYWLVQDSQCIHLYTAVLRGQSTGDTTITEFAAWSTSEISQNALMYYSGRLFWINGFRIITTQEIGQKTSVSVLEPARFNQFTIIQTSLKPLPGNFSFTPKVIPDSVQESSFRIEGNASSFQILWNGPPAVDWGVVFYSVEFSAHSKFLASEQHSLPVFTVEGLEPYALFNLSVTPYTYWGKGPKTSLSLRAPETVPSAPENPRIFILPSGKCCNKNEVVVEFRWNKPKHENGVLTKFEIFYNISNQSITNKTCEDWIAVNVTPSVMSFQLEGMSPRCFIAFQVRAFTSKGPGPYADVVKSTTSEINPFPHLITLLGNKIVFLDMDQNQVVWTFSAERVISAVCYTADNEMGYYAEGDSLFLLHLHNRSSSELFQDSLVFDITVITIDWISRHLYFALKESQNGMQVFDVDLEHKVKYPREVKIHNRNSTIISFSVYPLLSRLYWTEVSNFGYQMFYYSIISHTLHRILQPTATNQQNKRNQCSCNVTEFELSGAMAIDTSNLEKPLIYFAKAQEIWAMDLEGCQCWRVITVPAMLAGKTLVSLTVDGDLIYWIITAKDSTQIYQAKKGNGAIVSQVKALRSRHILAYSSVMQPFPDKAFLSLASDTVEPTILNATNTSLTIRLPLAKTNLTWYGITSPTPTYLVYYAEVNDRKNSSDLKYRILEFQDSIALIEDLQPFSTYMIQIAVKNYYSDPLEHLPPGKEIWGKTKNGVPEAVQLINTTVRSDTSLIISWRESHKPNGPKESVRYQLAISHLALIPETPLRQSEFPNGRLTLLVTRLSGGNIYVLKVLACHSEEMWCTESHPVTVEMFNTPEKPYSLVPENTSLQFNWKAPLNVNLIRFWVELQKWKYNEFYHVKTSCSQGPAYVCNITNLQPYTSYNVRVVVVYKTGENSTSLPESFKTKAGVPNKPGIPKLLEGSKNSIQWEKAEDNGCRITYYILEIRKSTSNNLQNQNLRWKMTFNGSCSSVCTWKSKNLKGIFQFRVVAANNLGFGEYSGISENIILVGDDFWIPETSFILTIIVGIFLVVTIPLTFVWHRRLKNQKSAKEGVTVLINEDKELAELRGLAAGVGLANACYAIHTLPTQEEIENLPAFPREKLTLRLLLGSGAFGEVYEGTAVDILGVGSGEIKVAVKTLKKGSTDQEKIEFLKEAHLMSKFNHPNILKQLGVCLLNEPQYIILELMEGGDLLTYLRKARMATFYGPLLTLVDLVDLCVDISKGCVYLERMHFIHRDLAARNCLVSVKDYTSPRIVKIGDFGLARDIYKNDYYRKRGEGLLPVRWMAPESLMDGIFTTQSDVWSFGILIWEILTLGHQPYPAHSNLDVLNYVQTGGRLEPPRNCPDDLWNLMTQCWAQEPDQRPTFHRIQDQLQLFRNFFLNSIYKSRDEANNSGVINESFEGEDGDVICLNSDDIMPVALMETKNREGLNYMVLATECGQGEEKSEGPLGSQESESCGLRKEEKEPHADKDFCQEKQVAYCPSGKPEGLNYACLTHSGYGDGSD
c-MET, sequence (P08581 25-1390): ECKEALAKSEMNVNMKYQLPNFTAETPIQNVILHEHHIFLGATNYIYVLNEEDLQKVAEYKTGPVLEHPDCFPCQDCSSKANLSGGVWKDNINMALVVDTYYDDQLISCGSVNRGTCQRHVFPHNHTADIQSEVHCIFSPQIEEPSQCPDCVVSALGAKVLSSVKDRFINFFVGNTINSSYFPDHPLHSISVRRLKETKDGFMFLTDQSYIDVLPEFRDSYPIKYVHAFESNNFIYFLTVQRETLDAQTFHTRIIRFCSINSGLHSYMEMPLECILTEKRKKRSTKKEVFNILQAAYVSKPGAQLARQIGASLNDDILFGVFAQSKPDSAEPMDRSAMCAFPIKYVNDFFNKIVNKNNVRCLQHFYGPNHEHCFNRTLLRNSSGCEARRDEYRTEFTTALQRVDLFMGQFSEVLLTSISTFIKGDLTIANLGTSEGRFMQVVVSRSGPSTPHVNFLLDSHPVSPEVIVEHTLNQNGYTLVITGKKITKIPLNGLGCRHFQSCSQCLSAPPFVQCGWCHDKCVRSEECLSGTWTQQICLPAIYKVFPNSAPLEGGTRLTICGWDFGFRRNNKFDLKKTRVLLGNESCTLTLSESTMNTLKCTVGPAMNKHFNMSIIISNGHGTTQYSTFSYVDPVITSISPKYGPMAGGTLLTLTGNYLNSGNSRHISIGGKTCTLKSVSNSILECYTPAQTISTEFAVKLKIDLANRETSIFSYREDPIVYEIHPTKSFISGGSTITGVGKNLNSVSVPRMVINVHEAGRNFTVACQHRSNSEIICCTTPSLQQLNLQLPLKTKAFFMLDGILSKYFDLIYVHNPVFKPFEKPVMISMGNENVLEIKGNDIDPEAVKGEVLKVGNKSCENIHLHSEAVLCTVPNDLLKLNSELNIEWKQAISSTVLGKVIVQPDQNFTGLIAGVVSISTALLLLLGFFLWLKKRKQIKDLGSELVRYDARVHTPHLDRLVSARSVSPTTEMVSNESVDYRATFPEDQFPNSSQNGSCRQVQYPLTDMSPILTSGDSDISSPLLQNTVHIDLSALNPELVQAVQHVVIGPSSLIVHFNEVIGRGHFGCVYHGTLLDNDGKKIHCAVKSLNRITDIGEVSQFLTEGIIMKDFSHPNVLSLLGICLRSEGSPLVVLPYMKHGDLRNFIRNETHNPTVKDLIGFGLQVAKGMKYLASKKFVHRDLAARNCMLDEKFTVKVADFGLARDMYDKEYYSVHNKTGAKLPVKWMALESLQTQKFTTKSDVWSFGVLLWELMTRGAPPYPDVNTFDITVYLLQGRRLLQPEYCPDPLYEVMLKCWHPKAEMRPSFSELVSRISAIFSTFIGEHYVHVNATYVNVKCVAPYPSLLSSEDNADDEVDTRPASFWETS
FGFR3, sequence (P22607 23-806, species assumed): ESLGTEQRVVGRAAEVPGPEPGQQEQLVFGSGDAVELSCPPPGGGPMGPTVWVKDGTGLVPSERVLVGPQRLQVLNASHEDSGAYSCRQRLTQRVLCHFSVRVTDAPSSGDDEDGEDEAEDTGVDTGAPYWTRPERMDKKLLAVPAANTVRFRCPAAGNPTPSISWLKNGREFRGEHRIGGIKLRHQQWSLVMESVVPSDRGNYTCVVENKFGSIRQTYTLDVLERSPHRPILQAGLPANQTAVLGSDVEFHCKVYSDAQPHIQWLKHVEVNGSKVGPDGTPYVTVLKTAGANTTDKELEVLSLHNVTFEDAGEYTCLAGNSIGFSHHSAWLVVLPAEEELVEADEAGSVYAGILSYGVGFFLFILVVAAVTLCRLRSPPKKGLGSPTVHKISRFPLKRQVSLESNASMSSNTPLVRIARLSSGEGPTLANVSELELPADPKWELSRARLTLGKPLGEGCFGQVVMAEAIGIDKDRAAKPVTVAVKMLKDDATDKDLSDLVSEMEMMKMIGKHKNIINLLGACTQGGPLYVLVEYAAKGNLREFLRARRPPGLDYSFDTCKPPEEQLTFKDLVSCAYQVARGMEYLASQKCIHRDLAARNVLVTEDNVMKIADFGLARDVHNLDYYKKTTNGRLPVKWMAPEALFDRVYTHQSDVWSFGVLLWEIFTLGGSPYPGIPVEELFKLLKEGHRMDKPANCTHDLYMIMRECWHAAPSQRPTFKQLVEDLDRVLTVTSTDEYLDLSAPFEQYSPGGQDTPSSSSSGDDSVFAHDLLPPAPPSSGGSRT

The term IC50 denotes the concentration that inhibits the measured activity by half. Broadly, the inhibition is the drop in the measured response relative to a control, in per cent. As to `Cc1oncc1C(=O)Nc1ccc2cnc(-c3cc(N4CCN(C)CC4)cc(C(F)(F)F)c3)nc2c1` [Compound 7d, 5-methyl-N-(2-(3-(4-methylpiperazin-1-yl)-5-(trifluoromethyl)phenyl)quinazolin-7-yl)isoxazole-4-carboxamide], the IC50 was below 3 µM on FLT (ITD) (read-out: FLT (ITD) IC50), 0.301 µM at FLT (ITD) (read-out: IC50 against FLT-ITD), below 3 µM on FLT3 (read-out: FLT3 IC50) and 0.106 µM at FLT3 (read-out: IC50 against FLT3). The inhibition at 10 µM on BTK was determined as 17.5%; on FMS, 5.49%; on FGFR3, 1%; at CAMKK1, 0%; on RIPK3 it was 12.8%; at AXL (R499C), 10.1%. Also, the inhibition at 10 µM at BRAF (V599E) is 5.19%; at Aurora A, 20.1%; at MEK1, 0%; at c-MET it was 13.2%; at ABL1 it was 6.46%; on ROS/ROS1, 14.4%. Further, at ALK, the inhibition at 10 µM came to 17%.

(Values after patent US12617758B2, “Quinazoline derivative having FLT3 inhibitory activity, and use thereof” (INDUSTRY-UNIVERSITY COOPERATION FOUNDATION HANYANG …, priority 2020, dated 2026).)
